For assay [1], the target named is T1, BRAF V600E (Homo sapiens, UniProt P15056, V600E).
T1 construct: expressed in transfected cells
Description: Cellular assay of target protein degradation, T-Rex 293 cells stably transfected with HA-BRAF_V600E (HA immunofluorescence, high content imaging). Type of assay: cell-based. Particulars: T-Rex 293 HA-BRAF V600E; for DC50: half maximal degradation, read-out: BRaf V600E DC50; for Dmax: maximum degradation observed. The method in brief:
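24 h compound exposure, 1 μM–0.1 nM final, 0.1% DMSO, 37 °C; cells induced with 1 ng/mL doxycycline. PFA fix, Triton permeabilize, anti-HA overnight 4 °C, Hoechst/phalloidin counterstain. Output: DC50, Dmax as % control.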

Assay [2] has as its target T2, BRAF G466V (Homo sapiens, UniProt P15056, G466V).
T2 construct: expressed in transfected cells
Nature of the assay: Cellular assay of target protein degradation, T-Rex 293 cells stably transfected with HA-BRAF G466V (HA immunofluorescence, high content imaging). Particulars: T-Rex 293 HA-BRAF G466V; for DC50: half maximal degradation, read-out: BRaf G466V DC50; for Dmax: maximum degradation observed. Type of assay: cell-based. The method in brief: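 24 h compound, 30 nM–3 pM final, 0.1% DMSO, 37° C; HA-BRAF G466V induced with 0.75 ng/mL doxycycline. PFA fix, Triton perm, anti-HA + Alexa fluor secondary, Hoechst/phalloidin counterstain; imaging. DC50, Dmax (% of control).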

One may read the DC50 as the concentration giving 50% degradation. Broadly, the Dmax is the largest share of the target that was removed. Higher therefore signals deep degradation.

T2 sequence (P15056 whole entry G466V): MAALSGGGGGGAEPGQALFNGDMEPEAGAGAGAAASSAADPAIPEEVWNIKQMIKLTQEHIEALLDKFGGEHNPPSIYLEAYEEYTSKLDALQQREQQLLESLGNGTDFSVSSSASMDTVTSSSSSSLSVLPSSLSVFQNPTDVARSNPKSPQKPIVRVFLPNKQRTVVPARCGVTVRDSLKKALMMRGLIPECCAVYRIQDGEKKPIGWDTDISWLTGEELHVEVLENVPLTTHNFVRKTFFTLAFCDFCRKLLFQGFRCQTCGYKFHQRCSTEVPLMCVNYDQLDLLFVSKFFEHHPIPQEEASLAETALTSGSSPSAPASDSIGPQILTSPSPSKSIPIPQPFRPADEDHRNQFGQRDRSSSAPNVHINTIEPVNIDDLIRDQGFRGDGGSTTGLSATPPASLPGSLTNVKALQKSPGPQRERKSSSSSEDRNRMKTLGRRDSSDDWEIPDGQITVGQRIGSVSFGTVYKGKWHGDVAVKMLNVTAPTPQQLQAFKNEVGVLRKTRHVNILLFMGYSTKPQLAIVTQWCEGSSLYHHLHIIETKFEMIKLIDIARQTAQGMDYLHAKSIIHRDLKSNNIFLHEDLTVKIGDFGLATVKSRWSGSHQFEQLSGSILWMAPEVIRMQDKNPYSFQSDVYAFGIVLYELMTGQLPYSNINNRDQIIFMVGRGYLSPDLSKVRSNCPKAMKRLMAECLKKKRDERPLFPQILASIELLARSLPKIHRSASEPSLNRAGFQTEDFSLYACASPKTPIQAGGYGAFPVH
T1 sequence (P15056 whole entry V600E): as the sequence (P15056 whole entry G466V) above, with V466G, V600E counted along it

Take `N#Cc1cc(-c2cnc3[nH]cc(C(=O)c4c(F)ccc(NS(=O)(=O)N5CC[C@@H](F)C5)c4F)c3c2)ccc1N1CCC(CN2CCC(c3ccc4c(c3)CN([C@H]3CCC(=O)NC3=O)C4=O)CC2)CC1` [Compound 205, (3R)—N-{3-[5-(3-cyano-4-{4-[(4-{2-[(3S)-2,6-dioxopiperidin-3-yl]-1-oxo-2,3-dihydro-1H-isoindol-5-yl}piperidin-1-yl)methyl]piperidin-1-yl}phenyl)-1H-pyrrolo[2,3-b]pyridine-3-carbonyl]-2,4-difluorophenyl}-3-fluoropyrrolidine-1-sulfonamide]: in assay [1], the DC50 fell in the range of 5 to 50 nM and the greatest degradation seen (Dmax) fell in the range of 35 to 70%. In assay [2], the DC50 is less than 1 nM and the maximal degradation (Dmax) is 35 to 70%.

Regarding `O=C1CC[C@H](N2Cc3cc(C4CCN(CC5CCN(c6ccc(-c7cnc8[nH]cc(C(=O)c9c(F)ccc(NS(=O)(=O)CC%10CC%10)c9F)c8c7)cc6)CC5)CC4)ccc3C2=O)C(=O)N1` [Compound 206, 1-cyclopropyl-N-{3-[5-(4-{4-[(4-{2-[(3S)-2,6-dioxopiperidin-3-yl]-1-oxo-2,3-dihydro-1H-isoindol-5-yl}piperidin-1-yl)methyl]piperidin-1-yl}phenyl)-1H-pyrrolo[2,3-b]pyridine-3-carbonyl]-2,4-difluorophenyl}methanesulfonamide], the values for the DC50 in assay [1] and in assay [2] were 5 to 50 nM and less than 1 nM, respectively. The Dmax in assay [1] and in assay [2] was 35 to 70% each time.

On to `COc1c(NS(=O)(=O)N2CC[C@@H](F)C2)ccc(F)c1C(=O)c1c[nH]c2ncc(-c3ccc(N4CCC(CN5CCC(c6ccc7c(c6)CN([C@H]6CCC(=O)NC6=O)C7=O)CC5)CC4)cc3)cc12` [Compound 207, (3R)—N-{3-[5-(4-{4-[(4-{2-[(3S)-2,6-dioxopiperidin-3-yl]-1-oxo-2,3-dihydro-1H-isoindol-5-yl}piperidin-1-yl)methyl]piperidin-1-yl}phenyl)-1H-pyrrolo[2,3-b]pyridine-3-carbonyl]-4-fluoro-2-methoxyphenyl}-3-fluoropyrrolidine-1-sulfonamide], for which, in assay [1], the DC50 was 5 to 50 nM and the Dmax lay within 35 to 70%. In assay [2], the DC50 is less than 1 nM and the Dmax lay within 35 to 70%.

As to `CC(C)N(C)S(=O)(=O)Nc1ccc(F)c(C(=O)c2c[nH]c3ncc(-c4ccc(N5CCC(CN6CCC(c7ccc8c(c7)CN([C@H]7CCC(=O)NC7=O)C8=O)CC6)CC5)cc4)cc23)c1F` [Compound 208, (3S)-3-(5-{1-[(1-{4-[3-(2,6-difluoro-3-{[methyl(propan-2-yl)sulfamoyl]amino}benzoyl)-1H-pyrrolo[2,3-b]pyridin-5-yl]phenyl}piperidin-4-yl)methyl]piperidin-4-yl}-1-oxo-2,3-dihydro-1H-isoindol-2-yl)piperidine-2,6-dione], in assay [1], the DC50 is 5 to 50 nM and the Dmax was 35 to 70%. In assay [2], the DC50 is less than 1 nM and the Dmax lay within 35 to 70%.

Consider `O=C1CCC(N2Cc3cc(N4CC(CN5CCN(C6CCN(c7ccc(-c8cnc9[nH]cc(C(=O)c%10c(F)ccc(NS(=O)(=O)N%11CC[C@@H](F)C%11)c%10F)c9c8)cc7)CC6)CC5)C4)ccc3C2=O)C(=O)N1` (stereo partly drawn) [Compound 209, (3R)—N-{3-[5-(4-{4-[4-({1-[2-(2,6-dioxopiperidin-3-yl)-1-oxo-2,3-dihydro-1H-isoindol-5-yl]azetidin-3-yl}methyl)piperazin-1-yl]piperidin-1-yl}phenyl)-1H-pyrrolo[2,3-b]pyridine-3-carbonyl]-2,4-difluorophenyl}-3-fluoropyrrolidine-1-sulfonamide], for which the DC50 in assay [1] lay within 5 to 50 nM; in assay [2] it was 1 to 10 nM. Also, the values for the Dmax in assay [1] and in assay [2] were less than 35% and 35 to 70%, respectively.

With `CNc1cc(-c2cnc3[nH]cc(C(=O)c4c(F)ccc(NS(=O)(=O)N5CC[C@@H](F)C5)c4F)c3c2)ccc1N1CCC(CN2CCC(c3ccc4c(c3)CN([C@H]3CCC(=O)NC3=O)C4=O)CC2)CC1` [Compound 210, (3R)—N-{3-[5-(4-{4-[(4-{2-[(3S)-2,6-dioxopiperidin-3-yl]-1-oxo-2,3-dihydro-1H-isoindol-5-yl}piperidin-1-yl)methyl]piperidin-1-yl}-3-(methylamino)phenyl)-1H-pyrrolo[2,3-b]pyridine-3-carbonyl]-2,4-difluorophenyl}-3-fluoropyrrolidine-1-sulfonamide], in assay [1], the DC50 was 5 to 50 nM and the Dmax lay within 35 to 70%. For the same compound, in assay [2], the DC50 is 1 to 10 nM and the Dmax was more than 70%.

For `C[C@H]1CCCN1S(=O)(=O)Nc1ccc(F)c(C(=O)c2c[nH]c3ncc(-c4ccc(N5CCC(CN6CCC(c7ccc8c(c7)CN([C@H]7CCC(=O)NC7=O)C8=O)CC6)CC5)cc4)cc23)c1F` [Compound 211, (2S)—N-{3-[5-(4-{4-[(4-{2-[(3S)-2,6-dioxopiperidin-3-yl]-1-oxo-2,3-dihydro-1H-isoindol-5-yl}piperidin-1-yl)methyl]piperidin-1-yl}phenyl)-1H-pyrrolo[2,3-b]pyridine-3-carbonyl]-2,4-difluorophenyl}-2-methylpyrrolidine-1-sulfonamide], in assay [1], the DC50 fell in the range of 5 to 50 nM and the Dmax lay within 35 to 70%. Moreover, in assay [2], the DC50 was in the range of 1 to 10 nM and the Dmax is 35 to 70%.

As to `COc1ccc(NS(=O)(=O)N2CC[C@@H](F)C2)c(F)c1C(=O)c1c[nH]c2ncc(-c3ccc(N4CCC(CN5CCC(c6ccc7c(c6)CN([C@H]6CCC(=O)NC6=O)C7=O)CC5)CC4)cc3)cc12` [Compound 212, (3R)—N-{3-[5-(4-{4-[(4-{2-[(3S)-2,6-dioxopiperidin-3-yl]-1-oxo-2,3-dihydro-1H-isoindol-5-yl}piperidin-1-yl)methyl]piperidin-1-yl}phenyl)-1H-pyrrolo[2,3-b]pyridine-3-carbonyl]-2-fluoro-4-methoxyphenyl}-3-fluoropyrrolidine-1-sulfonamide], the DC50 in assay [1] lay within 5 to 50 nM; in assay [2] it was 1 to 10 nM. Also, the figures for the Dmax in assay [1] and in assay [2] were 35 to 70% and more than 70%, respectively.

With `CN(CC(F)F)S(=O)(=O)Nc1ccc(F)c(C(=O)c2c[nH]c3ncc(-c4ccc(N5CCC(CN6CCC(c7ccc8c(c7)CN(C7CCC(=O)NC7=O)C8=O)CC6)CC5)cc4)cc23)c1F` (stereo not shown) [Compound 213, 3-(5-{1-[(1-{4-[3-(3-{[(2,2-difluoroethyl)(methyl)sulfamoyl]amino}-2,6-difluorobenzoyl)-1H-pyrrolo[2,3-b]pyridin-5-yl]phenyl}piperidin-4-yl)methyl]piperidin-4-yl}-1-oxo-2,3-dihydro-1H-isoindol-2-yl) piperidine-2,6-dione], the values for the DC50 in assay [1] and in assay [2] were 5 to 50 nM and 1 to 10 nM, respectively. The Dmax in assay [1] was 35 to 70%; in assay [2], more than 70%.

Consider `O=C1CCC(N2Cc3cc(N4CCC(C5CCN(c6ccc(-c7cnc8[nH]cc(C(=O)c9c(F)ccc(NS(=O)(=O)N%10CC[C@@H](F)C%10)c9F)c8c7)cc6)CC5)CC4)ccc3C2=O)C(=O)N1` (stereo partly drawn) [Compound 214, (3R)-N-{3-[5-(4-{1′-[2-(2,6-dioxopiperidin-3-yl)-1-oxo-2,3-dihydro-1H-isoindol-5-yl]-[4,4′-bipiperidin]-1-yl}phenyl)-1H-pyrrolo[2,3-b]pyridine-3-carbonyl]-2,4-difluorophenyl}-3-fluoropyrrolidine-1-sulfonamide], for which, in assay [1], the 50% degradation concentration (DC50) was 5 to 50 nM and the Dmax was less than 35%. Besides, in assay [2], the DC50 lay in the range of 1 to 10 nM and the Dmax is 35 to 70%.

With `O=C1CCC(N2Cc3cc(C4CCN(CC5CCN(c6cnc(-c7cnc8[nH]cc(C(=O)c9c(F)ccc(NS(=O)(=O)N%10CC[C@@H](F)C%10)c9F)c8c7)nc6)CC5)CC4)ccc3C2=O)C(=O)N1` (stereo partly drawn) [Compound 215, (3R)-N-[3-(5-{5-[4-({4-[2-(2,6-dioxopiperidin-3-yl)-1-oxo-2,3-dihydro-1H-isoindol-5-yl]piperidin-1-yl}methyl)piperidin-1-yl]pyrimidin-2-yl}-1H-pyrrolo[2,3-b]pyridine-3-carbonyl)-2,4-difluorophenyl]-3-fluoropyrrolidine-1-sulfonamide], in assay [1], the half-maximal degradation concentration (DC50) was 5 to 50 nM and the Dmax lay within 35 to 70%. In assay [2], the half-maximal degradation concentration (DC50) lay in the range of 1 to 10 nM and the Dmax was more than 70%.

Consider `O=C1CCC(N2Cc3cc(C4CCN(CC[C@@H]5CCN(c6ccc(-c7cnc8[nH]cc(C(=O)c9c(F)ccc(NS(=O)(=O)N%10CC[C@@H](F)C%10)c9F)c8c7)cc6)C5)CC4)ccc3C2=O)C(=O)N1` (stereo partly drawn) [Compound 216, (3R)-N-[3-(5-{4-[(3R)-3-(2-{4-[2-(2,6-dioxopiperidin-3-yl)-1-oxo-2,3-dihydro-1H-isoindol-5-yl]piperidin-1-yl}ethyl)pyrrolidin-1-yl]phenyl}-1H-pyrrolo [2,3-b]pyridine-3-carbonyl)-2,4-difluorophenyl]-3-fluoropyrrolidine-1-sulfonamide], for which the DC50 in assay [1] was in the range of 5 to 50 nM; in assay [2], 1 to 10 nM. Further, the Dmax in assay [1] was less than 35%; in assay [2] it was more than 70%.

As for `O=C1CCC(N2Cc3cc(C4CCN(CC[C@H]5CCN(c6ccc(-c7cnc8[nH]cc(C(=O)c9c(F)ccc(NS(=O)(=O)N%10CC[C@@H](F)C%10)c9F)c8c7)cc6)C5)CC4)ccc3C2=O)C(=O)N1` (stereo partly drawn) [Compound 217, (3R)-N-[3-(5-{4-[(3S)-3-(2-{4-[2-(2,6-dioxopiperidin-3-yl)-1-oxo-2,3-dihydro-1H-isoindol-5-yl]piperidin-1-yl}ethyl)pyrrolidin-1-yl]phenyl}-1H-pyrrolo [2,3-b]pyridine-3-carbonyl)-2,4-difluorophenyl]-3-fluoropyrrolidine-1-sulfonamide], the half-maximal degradation concentration (DC50) lay in the range of 5 to 50 nM in assay [1] and 10 to 30 nM in assay [2]. The Dmax in assay [1] is 35 to 70%; in assay [2] it was more than 70%.

(Values after US12180193B2, “Accelerating fibrosarcoma protein degrading compounds and associated methods of use” (Arvinas Operations, Inc., priority 2020, dated 2024).)
